Patent US9018224B2, “Substituted cyclopropyl compounds useful as GPR119 agonists” (Merck Sharp & Dohme Corp., priority 2011, dated 2015)

Each compound was assayed against T1, human GPR119 (Homo sapiens, UniProt Q8TDV5) (assay: Measurement of GPR119 signaling by cAMP (LANCE cAMP kit or HTRF) in HEK293 cells transfected with human GPR119). Details: agonist cAMP response in HEK293 cells stably transfected with human GPR119; patent does not say which of the two cAMP formats (LANCE or HTRF).
T1 sequence (Q8TDV5 1-308 limits assumed): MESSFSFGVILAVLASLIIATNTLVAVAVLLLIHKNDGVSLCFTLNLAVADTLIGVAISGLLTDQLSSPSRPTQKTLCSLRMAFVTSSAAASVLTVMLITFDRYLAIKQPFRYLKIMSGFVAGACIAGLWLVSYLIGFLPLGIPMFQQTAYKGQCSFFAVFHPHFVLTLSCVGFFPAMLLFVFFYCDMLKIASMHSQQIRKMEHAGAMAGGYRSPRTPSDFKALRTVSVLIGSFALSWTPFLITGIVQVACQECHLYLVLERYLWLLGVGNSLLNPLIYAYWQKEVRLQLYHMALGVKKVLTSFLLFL
Assay type: cell-based
Description: Measurement of GPR119 Signaling Using LANCE 384-Well cAMP Kit
The adenylate cyclase assay was constructed following the LANCE™ cAMP Kit (Perkin Elmer, AD0264) instructions. […] The reaction was stopped by incubating with the supplied detection buffer containing the europium chelate of the Eu-SA/Biotin-cAMP tracer for 3 hours. The assay was performed in duplicate in a 384 well plate for duplicate plates. […] Basal activity was determined using a DMSO control and maximum response was defined as cAMP stimulation produced by an internal agonist control. Standard cAMP concentrations were assayed concurrently for conversion of fluorescence signal to cAMP level. The data was analyzed using 4-parameter curve fit in Microsoft Excel
Measurement of GPR119 Signaling Using a Cyclic AMP (cAMP) Homogenous Time Resolved Fluorescence (HTRF) Assay
Chinese hamster ovary (CHO) cell lines stably transfected with the permissive guanine nucleotide binding protein alpha 15 (Gα15) and murine GPR119 were maintained in DMEM media containing FBS, penicillin-streptomycin, puromycin, and G418 (geneticin). […] Agonist activation of the GPR119 receptor was measured in receptor transfected cells described above, treated with compounds of this invention, using a commercial homogenous time resolved fluorescence (HTRF) kit for measurement of cAMP (CisBio, Bedford, Mass.). The assay was performed in 96-well half-volume plates (murine) or 384-well plates (human) following the manufacturers instructions. Briefly, suspended cells were incubated with a dose titration of test compound at room temperature for 60 min, lysed, and incubated with HTRF reagents for an additional 60 min. The plate was read using an Envision multilabel reader (Perkin Elmer) adjusted to read time resolved fluorescence and the cAMP concentrations were extrapolated from a cAMP calibration curve. […] The concentration of test compound required to stimulate a half-maximal response (EC50), and efficacy as compared to an internal agonist control, was determined from a sigmoidal 4-parameter curve fit of the resulting plot of normalized activity versus compound concentration.
`O=C(Cc1ccc(OCC[C@@H]2C[C@@H]2C2CCN(c3ncc(Cl)cn3)CC2)cc1F)N1Cc2cccnc2C1` [Example 123] was tested, and the EC50 was 0.78 nM.
`CN(CCC1CCOCC1)C(=O)Cc1ccc(OCC[C@@H]2C[C@@H]2C2CCN(c3ncc(Cl)cn3)CC2)cc1F` [Example 165] showed an EC50 of 2.6 nM.
`O=C(Cc1ccc(OCC[C@@H]2C[C@@H]2C2CCN(c3ncc(Cl)cn3)CC2)cc1F)N1CCCC1` [Example 85] gave an EC50 of 0.61 nM.
With `CN(C(=O)Cc1ccc(OCC[C@@H]2C[C@@H]2C2CCN(c3ncc(Cl)cn3)CC2)cc1F)C1CCCC1` [Example 82] the EC50 was 2.9 nM.
Compound `O=C(Cc1ccc(OCC[C@@H]2C[C@@H]2C2CCN(c3ncc(Cl)cn3)CC2)cc1F)N1CCc2[nH]nc(C(F)(F)F)c2C1` [Example 146] has an EC50 of 3.1 nM.
For `COc1cnc(N2CCC([C@H]3C[C@H]3CCOc3ccc(CC(=O)N4CC(O)C4)c(F)c3)CC2)nc1` [Example 33, 2-[2-fluoro-4-(2-{(1S,2R)-2-[1-(5-methoxypyrimidin-2-yl)piperidin-4-yl]cyclopropyl}ethoxy)phenyl]-1-(3-hydroxyazetidin-1-yl)ethanone], the EC50 was 2.1 nM.
`COCc1cnc(N2CCC([C@H]3C[C@H]3CCOc3ccc(CC(=O)N4CCOCC4)c(F)c3)CC2)nc1` [Example 46] was tested, and the EC50 was 1.8 nM.
With `Cc1ccc2n1CCN(C(=O)Cc1ccc(OCC[C@@H]3C[C@@H]3C3CCN(c4ncc(Cl)cn4)CC3)cc1F)C2C` (stereo partly drawn) [Example 191] the EC50 was 3.4 nM.
For `O=C(Cc1ccc(OCC[C@@H]2C[C@@H]2C2CCN(c3ncc(Cl)cn3)CC2)cc1F)N1CCc2[nH]ncc2C1` [Example 139], the EC50 was 2 nM.
With `CNC(=O)Cc1c(F)cc(OCC[C@@H]2C[C@@H]2C2CCN(c3ncc(COC)cn3)CC2)cc1F` [Example 227] the EC50 was 2.5 nM.
Work on `COCc1cnc(N2CCC([C@H]3C[C@H]3CCOc3ccc(CC(=O)N4CCC4)cc3)CC2)nc1` [Example 9] yielded an EC50 of 3.8 nM.
In the case of `CCc1cnc(N2CCC([C@H]3C[C@H]3CCOc3ccc(CC(=O)N4CCC4)cn3)CC2)nc1` [Example 241, 1-(azetidin-1-yl)-2-[6-(2-{(1S,2R)-2-[1-(5-ethylpyrimidin-2-yl)piperidin-4-yl]cyclopropyl}ethoxy)pyridin-3-yl)ethanone], the EC50 is reported as 7.4 nM.
Compound `COc1cnc(N2CCC([C@H]3C[C@H]3CCOc3ccc(CC(=O)N4CCOCC4)c(F)c3)CC2)nc1` [Example 38] has an EC50 of 1.4 nM.
With `CN(CC1CCCCO1)C(=O)Cc1ccc(OCC[C@@H]2C[C@@H]2C2CCN(c3ncc(Cl)cn3)CC2)cc1F` (stereo partly drawn) [Example 156] the EC50 was 2.8 nM.
`O=C(Cc1ccc(OCC[C@@H]2C[C@@H]2C2CCN(c3ncc(Cl)cn3)CC2)cc1F)N1CCn2nc(C(F)(F)F)nc2C1` [Example 134] gave an EC50 of 1 nM.
`O=C(Cc1ccc(OCC[C@@H]2C[C@@H]2C2CCN(c3ncc(Cl)cn3)CC2)cc1F)N1CC(F)(F)C1` [Example 71] was tested, and the EC50 was 1.2 nM.
Compound `CC1c2nnc(C(F)(F)F)n2C(C)CN1C(=O)Cc1ccc(OCC[C@@H]2C[C@@H]2C2CCN(c3ncc(Cl)cn3)CC2)cc1F` (stereo partly drawn) [Example 193] has an EC50 of 1.1 nM.
`CCOC(=O)CN(C)C(=O)Cc1ccc(OCC[C@@H]2C[C@@H]2C2CCN(c3ncc(Cl)cn3)CC2)cc1F` [Example 171] showed an EC50 of 1.7 nM.
`O=C(Cc1ccc(OCC[C@@H]2C[C@@H]2C2CCN(c3ncc(Cl)cn3)CC2)cc1F)N1CCCCC1` [Example 84] was tested, and the EC50 was 1.5 nM.
In the case of `COC(=O)C1CN(C(=O)Cc2ccc(OCC[C@@H]3C[C@@H]3C3CCN(c4ncc(Cl)cn4)CC3)cc2F)C1` [Example 115], the EC50 is reported as 2.2 nM.
Compound `CC1(NC(=O)Cc2ccc(OCC[C@@H]3C[C@@H]3C3CCN(c4ncc(Cl)cn4)CC3)cc2F)CCC1` [Example 92] has an EC50 of 4 nM.
`CC1CCC(N(C)C(=O)Cc2ccc(OCC[C@@H]3C[C@@H]3C3CCN(c4ncc(Cl)cn4)CC3)cc2F)CC1` (stereo partly drawn) [Example 161] gave an EC50 of 3.7 nM.
In the case of `CC1(CNC(=O)Cc2ccc(OCC[C@@H]3C[C@@H]3C3CCN(c4ncc(Cl)cn4)CC3)cc2F)CCC1` [Example 96], the EC50 is reported as 5.1 nM.
For `CCc1cnc(N2CCC([C@H]3C[C@H]3CCOc3ccc(CC(=O)N4CCC4)c(C#N)c3)CC2)nc1` [Example 24], the EC50 was 0.4 nM.
`COCc1cnc(N2CCC([C@H]3C[C@H]3CCOc3cc(F)c(CC(=O)N(C)C)cc3F)CC2)nc1` [Example 209, 2-{2,5-difluoro-4-[2-((1S,2R)-2-{1-[5-(methoxymethyl)pyrimidin-2-yl]piperidin-4-yl}cyclopropyl)ethoxy]phenyl}-N, N-dimethylacetamide] was tested, and the EC50 was 1.6 nM.
Work on `O=C(Cc1ccc(OCC[C@@H]2C[C@@H]2C2CCN(c3ncc(Cl)cn3)CC2)cc1)N1CCCC1` [Example 3] yielded an EC50 of 2.1 nM.
With `Cn1nc(C(F)(F)F)c2c1CCN(C(=O)Cc1ccc(OCC[C@@H]3C[C@@H]3C3CCN(c4ncc(Cl)cn4)CC3)cc1F)C2` [Example 187] the EC50 was 2 nM.
`COCc1cnc(N2CCC([C@H]3C[C@H]3CCOc3ccc(CC(=O)N(C)C4CC4)c(F)c3)CC2)nc1` [Example 55] gave an EC50 of 4.4 nM.
`O=C(Cc1ccc(OCC[C@@H]2C[C@@H]2C2CCN(c3ncc(Cl)cn3)CC2)cc1F)N1CC(c2cccnc2)C1` [Example 122] showed an EC50 of 0.66 nM.
With `O=C(Cc1ccc(OCC[C@@H]2C[C@@H]2C2CCN(c3ncc(Cl)cn3)CC2)cc1F)NCC1CC1` [Example 77, 2-[4-(2-(1S,2R)-2-[1-(5-chloropyrimidin-2-yl)piperidin-4-yl]cyclopropylethoxy)-2-fluorophenyl]-N-(cyclopropylmethyl)acetamide] the EC50 was 1.5 nM.
`CCOc1cnc(N2CCC([C@H]3C[C@H]3CCOc3cc(F)c(CC(=O)N4CCOCC4)c(F)c3)CC2)nc1` [Example 235] gave an EC50 of 0.26 nM.
In the case of `COCc1cnc(N2CCC([C@H]3C[C@H]3CCOc3cc(F)c(CC(=O)N4CC(O)C4)c(F)c3)CC2)nc1` [Example 218, 1-({2,6-difluoro-4-[2-((1S,2R)-2-{1-[5-(methoxymethyl)pyrimidin-2-yl]piperidin-4-yl}cyclopropyl)ethoxy]phenyl}acetyl)azetidin-3-ol], the EC50 is reported as 1.6 nM.
`CC1CN(C(=O)Cc2ccc(OCC[C@@H]3C[C@@H]3C3CCN(c4ncc(Cl)cn4)CC3)cc2F)C1` [Example 64] showed an EC50 of 0.95 nM.
Compound `O=C(Cc1ccc(OCC[C@@H]2C[C@@H]2C2CCN(c3ncc(Cl)cn3)CC2)cc1F)N1CCn2ncnc2C1` [Example 135] has an EC50 of 0.54 nM.
`COCc1cnc(N2CCC([C@H]3C[C@H]3CCOc3ccc(CC(=O)N4C[C@H](F)[C@@H](F)C4)c(F)c3)CC2)nc1` [Example 50] showed an EC50 of 1 nM.
In the case of `CCC(C)CN(C)C(=O)Cc1ccc(OCC[C@@H]2C[C@@H]2C2CCN(c3ncc(Cl)cn3)CC2)cc1F` (stereo partly drawn) [Example 160], the EC50 is reported as 3.1 nM.
With `O=C(Cc1ccc(OCC[C@@H]2C[C@@H]2C2CCN(c3ncc(Cl)cn3)CC2)cc1F)N1CCC(C(F)(F)F)n2nccc21` (stereo partly drawn) [Example 195] the EC50 was 2.9 nM.
`CCOCc1cnc(N2CCC([C@H]3C[C@H]3CCOc3ccc(CC(=O)N4CC(F)C4)c(F)c3)CC2)nc1` [Example 201] gave an EC50 of 0.49 nM.
`COCc1cnc(N2CCC([C@H]3C[C@H]3CCOc3ccc(CC(=O)N4CC(C)(C)C4)cc3)CC2)nc1` [Example 13] gave an EC50 of 5.2 nM.
